This is an account of results in patent US20120122913A1, “COMBINATION OF CURCUMINOIDS AND MTOR INHIBITORS FOR THE TREATMENT OF TAUOPATHIES” (Institut National De La Recherche Scientifque, priority 2009, published 2012).

In data set [1] the test system is Tau protein. The data set can be described thus: Total Tau protein level by Western blot in differentiated SH-SY5Y cells exposed to β-amyloid(1-42). In kind it is cell-based, human. As to conditions: 48 h. The protocol: Chemical treatments were initiated and kept for 48 h.
On day 8, cells were observed under an inverted microscope to ensure that they are fully adherent and free of microbial contamination. On day 9, Petri dishes were used for Western Blot analyses. […] Cells were then removed with a cell scraper, transferred to a 0.6 ml microtube and kept on ice. Samples were sonicated for 30 seconds and mixed with a vortex for 5 seconds and the procedure was repeated once. Samples obtained were stored at −80 ° C. in aliquots of 20 μl. For SDS-PAGE analysis, samples (20 μl) were mixed with 7.34 μl of 4× SDS gel loading buffer (200 mM Tris-HCl, pH 6.8, 8% SDS, 20% Glycerol, 0.4% bromophenol blue and 400 mM β-mercaptoethanol) and 2 μl of cell lysing buffer, boiled for 10 min, cooled on ice, spun on a microcentrifuge and transferred to wells of an electrophoresis apparatus containing a 4% acrylamide stacking gel and a 8% acrylamide resolving gel. Electrophoresis protein separation was performed overnight using a constant current (40 V). Proteins were transferred to nitrocellulose by electro-blotting in a 20% methanol-transfer buffer with a constant 900 mA current for 90 min. Ponceau Red staining was performed to evaluate the quality of loading and transfer. […] The membrane was then washed 4 times for 5 min each time with TBS-0.1% Tween™, and soaked with the chemiluminescence substrate (Enhanced Luminol™ from PerkinElmer). X-Ray films were exposed to the membranes long enough to optimize each band detection. Band Intensity was quantified using a Fluor-S Multimager™ (Bio-Rad scanner) and the Quantity One™ software (Bio-Rad) and data adjusted with local background.
For orientation: A western blot detects proteins with antibodies after separation by electrophoresis.

Data set [2] has as its system differentiated SH-SY5Y cells. Put plainly: MTT cell viability assay in differentiated SH-SY5Y cells exposed to β-amyloid(1-42). As to conditions: 48 h. On the technique in general: Formazan colour is commonly taken as a measure of viable cells.
Procedure: For the cytotoxicity assay, 48 well-plates were seeded with 180,000 cells and 500 μl of culture medium was added. Five Petri dishes (or 6-well plates) were prepared for each treatment. […] On day 7, the culture medium was removed and changed with a medium free of retinoic acid and FBS, but containing 2 nM of BDNF (Sigma Cat. No. B3795), from a 2 μM master solution in filtered sterile water). Chemical treatments were initiated and kept for 48 h. […] The Human Beta Amyloid (Aβ(1-42), Chemicon Cat. No. AG972) solution was prepared according to the manufacturer's instructions. […] The solution was subsequently diluted in serum-deprived culture medium containing BDNF (2 nM final concentration) to obtain either a 5 nM or 5 μM Aβ(1-42) final concentration.
In parallel, on day 9, plates were used for the MTT cell viability assay. A volume of 62.5 μl of a 3-(4,5-Dimethylthiazol-2-yl)-2,5-diphenyltetrazolium bromide (MTT) solution (5 mg/ml in a 1:1 PBS/culture medium) was added, then plates were incubated for 4 h. A volume of 312.5 μl of isopropanol—0.1N HCl was added, then for each well the content was mixed using a pipette (wide bore tip) to solubilize the product. The optical density at 560 nm, which is proportional to the number of living cells, was measured (reference at 690 nm).

`COc1cc(/C=C/C(=O)CC(=O)/C=C/c2ccc(O)c(OC)c2)ccc1O` [curcumin, (E,E)-1,7-bis(4-Hydroxy-3-methoxyphenyl)-1,6-heptadiene-3,5-dione]: the “reduction in the total amount of Tau protein as compared to controls” value (shortened to “reduction in the total amount”) in data set [1] (10 μM curcumin, 5 μM human β-amyloid(1-42), FIG. 3) was 0.5%; in data set [1] (15 μM curcumin, 5 nM human β-amyloid(1-42), FIG. 5) it was 6.7%; in data set [1] (20 μM curcumin, 5 nM human β-amyloid(1-42), FIG. 1), 2.1%. In addition, the “cytotoxicity (cell viability, MTT)” value in data set [2] (10 μM curcumin, 5 μM β-amyloid(1-42), FIG. 4) was “none of these three treatments were cytotoxic”; in data set [2] (15 μM curcumin, 5 nM β-amyloid(1-42), FIG. 6), “none of these three treatments were cytotoxic”; in data set [2] (20 μM curcumin, 5 nM β-amyloid(1-42), FIG. 2), “none of these three treatments were cytotoxic”.

Turning to `CO[C@H]1C[C@@H]2CC[C@@H](C)[C@@](O)(O2)C(=O)C(=O)N2CCCC[C@H]2C(=O)O[C@H]([C@H](C)C[C@@H]2CC[C@@H](OC(=O)C(C)(CO)CO)[C@H](OC)C2)CC(=O)[C@H](C)/C=C(\C)[C@@H](O)[C@@H](OC)C(=O)[C@H](C)C[C@H](C)/C=C/C=C/C=C/1C` [Temsirolimus], in data set [1] (2 nM Temsirolimus, 5 nM human β-amyloid(1-42), FIG. 5), the “reduction in the total amount” value came to 5.3%. The “cytotoxicity (cell viability, MTT)” value in data set [2] (2 nM Temsirolimus, 5 nM β-amyloid(1-42), FIG. 6) is given as “none of these three treatments were cytotoxic”.

For `CO[C@H]1C[C@@H]2CC[C@@H](C)[C@@](O)(O2)C(=O)C(=O)N2CCCC[C@H]2C(=O)O[C@H]([C@H](C)C[C@@H]2CC[C@@H](OCCO)[C@H](OC)C2)CC(=O)[C@H](C)/C=C(\C)[C@@H](O)[C@@H](OC)C(=O)[C@H](C)C[C@H](C)/C=C/C=C/C=C/1C` [Everolimus], the “reduction in the total amount” value in data set [1] (1 nM Everolimus, 5 μM human β-amyloid(1-42), FIG. 3) is recorded as 17.2%; in data set [1] (2 nM Everolimus, 5 nM human β-amyloid(1-42), FIG. 1), 18.7%. In addition, the “cytotoxicity (cell viability, MTT)” value in data set [2] (1 nM Everolimus, 5 μM β-amyloid(1-42), FIG. 4) was “none of these three treatments were cytotoxic”; in data set [2] (2 nM Everolimus, 5 nM β-amyloid(1-42), FIG. 2), “none of these three treatments were cytotoxic”.
